In US4999372A, “New aminochromanol compounds” (ADIR et Compagnie, priority 1988, dated 1991):
Read-outs that look alike come from different tables or passages of the source.

How the values were obtained:
aorta of the rat [1] = assay: Reactivity of rat aortic rings to 4-aminopyridine (4 AP); format: cell-based; settings: 4 AP 5 mM
Experimental: (§1) Male Wistar rats (325-375 g) are anaesthetised i.p. using sodium pentobarbital (30 mg/kg). The thoracic aorta and the mesenteric portal vein are removed. The aorta is dissected into rings 3 mm long and the endothelium is removed mechanically.
(§2) The organs are placed in a 20 ml thermostatically controlled vessel containing a physiological solution composed of (mM): NaCl 112; KCl 5; KH2 PO4 1; MgSO4 1.2; CaCl2 2.5; NaHCO3 25; glucose 11.5; EDTA 0.1; pH: 7.4; 37° C.; 95% O2 +5% CO2.
(§3) The initial force applied is 2 g in the case of the aorta and 0.5 g in the case of the portal vein. The variations in force are measured by a STATHAM sensor connected to a transducer amplifier (GOULD) and are monitored continuously on a GOULD 2400 graphic recorder.
(§4) The experimental protocols are as follows: After a stabilisation period of 90 minutes, the aortic rings are subjected to various tests:
reactivity to 4-aminopyridine (4 AP)
The product to be tested, at a given concentration, or its solvent, is incubated in the normal physiological solution 15 minutes before the addition of the 4 AP (5 mM).
The maximum amplitudes of the responses to the 4 AP in the presence of the product or the solvent are compared.
(§5) The products are used in a form dissolved in water or a suitable solvent.
(§6) The concentrations expressed refer to the final concentrations in terms of base in the isolated organ baths.

aorta of the rat [2] = assay: Relaxation of rat aortic rings contracted by potassium depolarisation (KCl); format: cell-based; settings: rat aorta rings without endothelium
Experimental: as §1, §2, §3, §4
potassium depolarisation:
The preparations are exposed to a 30 mM or 80 mM KCl (and 87 and 37 mM NaCl, respectively) hyperpotassium medium; after 30 minutes' stabilisation of contraction, cumulative concentrations of the product to be tested are added every 15 minutes. The relaxation values obtained allow the IC50 s to be calculated.
as §5, §6

anaesthetised dog = assay: Haemodynamic study in the anaesthetised dog (vascular resistances), i.v.; format: in vivo; settings: 10 μg/kg
Experimental: A complete haemodynamic study was carried out on mongrel dogs weighing from 25 to 30 kg, which were anaesthetised with sodium pentobarbital 30 mg/kg i.v., intubated and ventilated and subjected to a thoracotomy at the 5th left intercostal space. The measurement of the […] is carried out using electromagnetic rings positioned at the level of the ascending aorta and the circumflex branch of the left coronary artery, respectively, and connected to GOULD SP 2202 electromagnetic flow meters. The aortic pressure is measured by a MILLAR probe introduced via the femoral artery.
The total peripheral vascular resistance values (TPR) and the mean coronary vascular resistance values (CVRM) are calculated by the ratio between the mean aortic pressure and the mean cardiac output and the mean coronary output, respectively. The products tested were injected via the femoral vein in a form dissolved in water or a suitable solvent.
The evolution of the vascular resistances, expressed as percentage variation with respect to the control values, is presented as a function of time in the following Table.

guinea pig = assay: Bronchospasm produced by a histamine aerosol at 4%, compound i.v.; format: in vivo; settings: 0.30 mg/kg i.v.
Experimental: The bronchodilating activity has been studied in the guinea pig by the method of H. KONZETT and R. ROSSLER, Arch. Exp. Path. U. Pharm. 195, 71 (1940).
For example, the bronchospasm produced in the guinea pig by a histamine aerosol et 4% is inhibited of 96% by the compound of Example 1 B form, at the dose of 0.30 mg/kg i.v., and of 100% by the compound of Example 24 B form, at the dose of 0.35 mg/kg i.v.

[3] = tested on: spontaneously hypertensive rat (SHR); assay: Arterial pressure in the conscious spontaneously hypertensive rat (SHR), oral; format: in vivo
Experimental: The study is carried out on SHR male rats (Charles River) weighing from 260 g to 330 g and aged from 18 to 20 weeks. A polyethylene catheter is positioned at the level of the abdominal aorta and tunnelised at the level of the neck under anaesthesia (ketamine hydrochloride 150 mg/kg intraperitoneally). The animals, placed in movement-restraining cages, are tested in the conscious state at least 48 hours after intervention. The arterial pressure, measured by a STATHAM P23 pressure sensor connected to the abdominal catheter, is registered on a GOULD 2400 recorder. […] The doses administered are expressed in mg/kg of base.
The results obtained with a certain number of representative products of the invention and a reference product, CROMAKALIM, are grouped in the following Table. The variations in systolic and diastolic arterial pressure (PAS and PAD) presented at the most significant times after treatment are expressed as percentage variation with respect to the control values.

[4] = tested on: conscious renally hypertensive dog; assay: Arterial pressure in the conscious renally hypertensive dog; format: in vivo; settings: gastric intubation, 0.1 mg/kg
Experimental: Mongrel dogs weighing from 20 to 25 kg are used. A silastic catheter positioned under anaesthesia (sodium pentobarbital 30 mg/kg i.v.) at the level of the abdominal aorta and left over a prolonged period permits the later measurement of the arterial pressure in the conscious animals. Arterial hypertension is induced by a second intervention under anaesthesia consisting in a constriction of the left renal artery using a clip, which reduces its rate of flow by approximately 70%, the left kidney is enveloped in a latex capsule and the contralateral kidney is left in place.
The systolic and diastolic arterial pressures (PAS and PAD) are measured using a STATHAM P23 pressure sensor connected to the silastic catheter and linked to a GOULD pressure amplifier. The products are tested on the animals, which have become hypertensive, in the conscious state, at least one week after the second intervention. The arterial pressure is monitored continuously on an ES1000 GOULD recorder until 7 hours have elapsed after the treatment and then until 24 hours have elapsed.
The products to be tested are administered via the digestive system, after gastric intubation, in a form dissolved in water or a suitable solvent. The doses administered are expressed in mg of base with respect to body weight.
The representative products of the invention were compared with the reference product (CROMAKALIM). The variations in the systolic and diastolic arterial pressures (PAS and PAD), presented at the most significant times after treatment, are expressed as percentage variation with respect to the control values.

In the case of `CC1(C)Oc2ccc(C#N)cc2C(N2C(=O)CC[C@H]2CO)C1O` (single isomer, unassigned) [Example 1 form B, 3R,4S- or 3S,4R-trans-2,2-dimethyl-3-hydroxy-4-(2-oxo-5S-hydroxymethyl-1-pyrrolidinyl)-6-cyanochroman], the “% inhibition of the response to 4AP” value (aorta of the rat [1]; product 3 × 10^-6 M) was 18%, the “% inhibition of the response to 4AP” value (aorta of the rat [1]; product 10^-5 M, listed as Ex. 1 Form B) was 77% and the IC50 (aorta of the rat [2]; 30 mM KCl, listed as Ex. 1 Form B, read-out: IC50 (M) KCl 30 mM) was 3.4e-07 M. For the same compound, the IC50 (aorta of the rat [2]; 80 mM KCl, read-out: IC50 (M) KCl 80 mM) was > 0.0001 M, the “Variation (%) of CVRM after treatment” value (anaesthetised dog; 1 min) was -69.4% and the “Variation (%) of TPR after treatment” value (anaesthetised dog; 1 min) was -45.9%. The “Variation (%) of CVRM after treatment” value (anaesthetised dog; 10 min) was -62.0%, the “Variation (%) of TPR after treatment” value (anaesthetised dog; 10 min) was -35.1% and the “Variation (%) of CVRM after treatment” value (anaesthetised dog; 30 min) was -43.7%. For the same compound, the “Variation (%) of TPR after treatment” value (anaesthetised dog; 30 min) was -35.1%, the “Inhibition of the bronchospasm produced by a histamine aerosol at 4%” value (guinea pig) was 96% and the “Variation (%) of PAD after treatment” value ([3]; 0.3 mg/kg, 1 H) was -36 ± 4%. The “Variation (%) of PAS after treatment” value ([3]; 0.3 mg/kg, 1 H) was -27 ± 4%, the “Variation (%) of PAD after treatment” value ([3]; 0.3 mg/kg, 3 H) was -35 ± 4% and the “Variation (%) of PAS after treatment” value ([3]; 0.3 mg/kg, 3 H) was -25 ± 3%. The “Variation (%) of PAD after treatment” value ([3]; 0.3 mg/kg, 6 H) was -40 ± 4%, the “Variation (%) of PAD after treatment” value ([3]; 0.3 mg/kg, 30 min) was -34 ± 6% and the “Variation (%) of PAS after treatment” value ([3]; 0.3 mg/kg, 30 min) was -27 ± 5%. The “Variation (%) of PAD after treatment” value ([3]; 1.0 mg/kg, 1 H) was -54 ± 2%, the “Variation (%) of PAS after treatment” value ([3]; 1.0 mg/kg, 1 H) was -44 ± 1% and the “Variation (%) of PAD after treatment” value ([3]; 1.0 mg/kg, 3 H) was -46 ± 6%. For the same compound, the “Variation (%) of PAS after treatment” value ([3]; 1.0 mg/kg, 3 H) was -40 ± 2%, the “Variation (%) of PAD after treatment” value ([3]; 1.0 mg/kg, 6 H) was -46 ± 4% and the “Variation (%) of PAS after treatment” value ([3]; 1.0 mg/kg, 6 H) was -36 ± 3%. The “Variation (%) of PAD after treatment” value ([3]; 1.0 mg/kg, 30 min) was -48 ± 5%, the “Variation (%) of PAS after treatment” value ([3]; 1.0 mg/kg, 30 min) was -42 ± 2% and the “Variation (%) of PAD after treatment” value ([4]; 1 H) was “+5%”. For the same compound, the “Variation (%) of PAS after treatment” value ([4]; 1 H) was “+2%”, the “Variation (%) of PAD after treatment” value ([4]; 3 H) was -50% and the “Variation (%) of PAS after treatment” value ([4]; 3 H) was -55%. The “Variation (%) of PAD after treatment” value ([4]; 7 H) was -68%, the “Variation (%) of PAS after treatment” value ([4]; 7 H) was -76% and the “Variation (%) of PAD after treatment” value ([4]; 24 H) was -27%. The “Variation (%) of PAS after treatment” value ([4]; 24 H) was -24%, the “Variation (%) of PAD after treatment” value ([4]; 30 min) was 0% and the “Variation (%) of PAS after treatment” value ([4]; 30 min) was 0%.
